In patent US6174909A, “4-aminotetrahydrobenzisoxazole or -isothiazole compounds” (H. Lundbeck A/S, priority 1995, dated 2001):
Structures can show the parent of a compound that is named as a salt.

Assays:
[1] = test system: GABA uptake in synaptosomes; experiment: GABA uptake inhibition in synaptosomes (overall, i.e. neuronal and glial); assay type: biochemical; details: values marked * = Preliminary Data
Procedure: The inhibition of GABA Uptake was performed by the method described by Falch et. al, Drug Dev. Res., 1990,21, 169-188. By this method the overall, i.e. neuronal and glial, inhibition of GABA uptake is determined.

[2] = test system: isoniazide induced convulsions in mice; experiment: Isoniazid antagonism (antagonism of isoniazide induced convulsions in mice); assay type: in vivo, mice (male NMRI/BOM); details: Mus musculus, sc, 30 min before 300 mg isoniazide s.c., protected = no convulsions within 60 min, log probit analysis
Procedure: The test is a test for antagonism of isoniazide induced convulsions in mice.
The test substance is given s.c. to mice (male NMRI/BOM, body weight 20-25 g) and 30 min later 300 mg isoniazide is given s.c. Five mice are used per dose and a control group only receiving isoniazide is included. This dose of isoniazide induces intermittent tonic seizures.
The animals are placed individually in Macrolon type II cages and the time when convulsions first occur is recorded. The experiment is stopped after 90 min. The animals that have not had convulsions within 60 min. are recorded as + (protected). The results, i.e. the number of protected mice pr number of tested mice are stated in fractions as follows: 0/5, 1/5 . . . , 5/5.

NC1CCCc2snc(O)c21 (racemic) [Compound 26a, (R,S)-4-Amino-3-hydroxy-4,5,6,7-tetrahydro-1,2-benzisothiazole, hydrobromide]
IC50 [1]: > 300 µM

Oc1noc2c1C(NCCCC(c1ccc(F)cc1)c1ccc(F)cc1)CCC2 (racemic) [Compound 8b, (R,S)-4-[4,4-Bis(4-fluorophenyl)butan-1-ylamino]-3-hydroxy-4,5,6,7-tetrahydro-1,2-benzisoxazole, hydrobromide]
ED50 [2]: 110 µmol/kg
IC50 [1]: 0.24 µM

CC(=O)OCCNC1CCCc2onc(O)c21 (racemic) [Compound 8c, (R,S)-4-(2-Acetyloxyethylamino)-3-hydroxy-4,5,6,7-tetrahydro-1,2-benzisoxazole, hydrobromide]
ED50 [2]: > 120 µmol/kg
IC50 [1]: 120 µM

CN(CCC=C1c2ccccc2CCc2ccccc21)C1CCCc2onc(O)c21 (racemic) [Compound 8k, (R,S)-4-[N-[3-(10,11 1-ihydrodibenzo[a,d]cyclohept-5-ylidene)propane-1-yl]methylamino]-3-hydroxy-4,5,6,7-tetrahydro-1,2-benzisoxazole, hydrobromide]
ED50 [2]: 68 µmol/kg

Cc1ccsc1C(=CCCNC1CCCc2onc(O)c21)c1sccc1C (racemic) [Compound 20c, (R,S)-3-Hydroxy-4-[N-(4,4-bis[3-methylthien-2-yl]-3-butenyl)amino]-4,5,6,7-tetrahydro-1,2-benzisoxazole hydrochloride]
IC50 [1]: 0.17 µM

CNC1CCCc2onc(OCOC(=O)c3c(F)cccc3F)c21 (racemic) [Compound 31c, (R,S)-4-Methylamino-3-(2,6-difluorobenzoyloxymethyloxy)-4,5,6,7-tetrahydro-1,2-benzisoxazole, hemioxalate]
ED50 [2]: 210 µmol/kg

CNC1CCCc2onc(O)c21 (single isomer, unassigned; (+)) [Compound 6c, (+)-3-hydroxy-4-methylamino-4,5,6,7-tetrahydro-1,2-benzisoxazole, hydrobromide]
ED50 [2]: > 320 µmol/kg
IC50 ([1]; hydrobromide): 42 µM

Cc1ccccc1C(CCCNC1CCCc2onc(O)c21)c1ccccc1C (racemic) [Compound 8n, (R,S)-4-[N-[4,4-Di-(2-tolyl)butan-1-yl]amino]-3-hydroxy-4,5,6,7-tetrahydro-1,2-benzisoxazole, hydrobromide]
ED50 [2]: 44 µmol/kg

CNC1CCCc2on(C(=O)Nc3ccccc3)c(=O)c21 (racemic) [Compound 15a, (R,S)-4-methylamino-2-phenylaminocarbonyl4,5,6,7-tetrahydro-1,2benzisoxazol-3-one, hydrochloride]
ED50 [2]: > 120 µmol/kg
IC50 [1]: 70 µM

Oc1noc2c1C(N1CCCC1)CCC2 (racemic) [Compound 8d, (R,S)-3-Hydroxy-4-(1-pyrrolidinyl)-4,5,6,7-tetrahydro-1,2-benzisoxazole, hydrobromide]
ED50 [2]: > 140 µmol/kg
IC50 [1]: 210 µM

CNC1CCCc2onc(OCOC(=O)c3c(C)cc(C)cc3C)c21 (racemic) [Compound 31b, (R,S)-4-Methylamino-3-(2,4,6-trimethylbenzoyloxymethyloxy)-4,5,6,7-tetrahydro-1,2-benzisoxazole, hemioxalate]
ED50 [2]: 55 µmol/kg
IC50 [1]: 300 µM

CNC1CCCc2onc(O)c21 (single isomer, unassigned; (-)) [Compound 6d, (-)-3-hydroxy-4-methylamino-4,5,6,7-tetrahydro-1,2-benzisoxazole, hydrobromide]
IC50 ([1]; hydrobromide): > 300 µM

Oc1noc2c1C(NCCCN1c3ccccc3Sc3ccccc31)CCC2 (racemic) [Compound 8l, (R,S)-4-[N-3-(Phenothiazin-10-yl)propane-1-yl]amino]-3-hydroxy4,5,6,7-tetrahydro-1,2-benzisoxazole, hydrobromide]
ED50 [2]: 71 µmol/kg

CNC(=O)n1oc2c(c1=O)C(NC)CCC2 (racemic) [Compound 15b]
ED50 [2]: 72 µmol/kg
IC50 [1]: 80 µM

CNC1CCCc2onc(OCOC(=O)C(C)(C)C)c21 (racemic) [Compound 14a, (R,S)-4-methylamino-3-pivaloyloxymethyloxy-4,5,6,7-tetrahydro-1,2-benzisoxazole, hemioxalate]
ED50 [2]: 86 µmol/kg
IC50 [1]: > 300 µM

CN(CCOC(c1ccccc1)c1ccccc1)C1CCCc2onc(O)c21 (racemic) [Compound 16c, (R,S)-4-[N-(diphenylmethyl-2-oxyethyl)-N-methylamino]-3-hydroxy-4,5,6,7-tetrahydro-1,2-benzisoxazole, hydrochloride]
ED50 [2]: 160 µmol/kg
IC50 [1]: 0.36 µM

CNC1CCCc2on(COC(=O)C(C)(C)C)c(=O)c21 (racemic) [Compound 14b, (R,S)-4-methylamino-2-pivaloyloxym ethyl-4,5,6,7-tetrahydro-1,2-benz isoxazol-3-one, hemioxalate]
ED50 [2]: 220 µmol/kg
IC50 [1]: > 300 µM

CNC1CCCc2onc(O)c21 (racemic) [Compound 8a, (R,S)-3-Hydroxy-4-methylamino-4,5,6,7-tetrahydro-1,2-benzisoxazole, hydrobromide]
ED50 [2]: > 320 µmol/kg
IC50 [1]: 65 µM

Oc1noc2c1C(NCC(c1ccccc1)c1ccccc1)CCC2 (racemic) [Compound 41b, (R,S)-3-Hydroxy-4-(2,2-diphenylethylamino)-4,5,6,7-tetrahydro-1,2-benzisoxazole hydrobromide]
ED50 [2]: > 190 µmol/kg
IC50 [1]: 22 µM

Oc1noc2c1C(NCCC(c1ccccc1)c1ccccc1)CCC2 (racemic) [Compound 8i, (R,S)-4-(3,3-diphenylpropan-1-ylamind]-3-hydroxy-4,5,6,7-tetrahydro-1,2-benzisoxazole, hydrobromide]
ED50 [2]: 310 µmol/kg
IC50 [1]: 0.14 µM

CN(C)C1CCCc2onc(O)c21 (racemic) [Compound 18a, (R,S)-4-Dimethylamino-3-hydroxy-4,5,6,7-tetrahydro-1,2-benzisoxazole, hydrobromide]
IC50 [1]: 280 µM

Cc1ccccc1C(CCCN(C)C1CCCc2onc(O)c21)c1ccccc1C (racemic) [Compound 8m, (R,S)-4-[N-[4,4-Di-(2-tolyl)butan-1-yl]-rmethylamino]-3-hydroxy-4,5,6,7-tetrahydro-1,2-benzisoxazole, hydrobromide]
ED50 [2]: 27 µmol/kg

Cc1ccsc1C(=CCCN(C)C1CCCc2onc(O)c21)c1sccc1C (racemic) [Compound 16d, (R,S)-4-[N-(4,4-bis[3-methylthien-2-yl]-3-butenyl)-N-methylamino]-3-hydroxy-4,5,6,7-tetrahydro-1,2-benzisoxazole hydrochloride]
ED50 [2]: 63 µmol/kg
IC50 [1]: 0.31 µM

Cc1ccccc1C(=CCCNC1CCCc2onc(O)c21)c1ccccc1C (racemic) [Compound 8p, (R,S) -4-[N-1,1-Di-(2-tolyl)but-1-en-4-yl]amino]-3-hydroxy-4,5,6,7-tetrahydro-1,2-benzisoxazole, hydrobromide]
ED50 [2]: 30 µmol/kg

CN(CCC=C(c1ccccc1)c1ccccc1)C1CCCc2onc(O)c21 (racemic) [Compound 20a, (R,S)-3-Hydroxy-4-[N-(4,4-diphenyl-3-butenyl)methylamino]4,5,6,7-tetrahydro-1,2-benzisoxazole, hydrochloride]
ED50 [2]: 97 µmol/kg
IC50 [1]: 0.37 µM

CN(CCCC(c1ccccc1)c1ccccc1)C1CCCc2onc(O)c21 (racemic) [Compound 11b, (R,S)-4-[-N -(4,4-Diphenylbut-1-yl)-N-methylamino]-3-hydroxy-4,5,6,7-tetrahydro-1,2-benzisoxazole, hydrobromide]
ED50 [2]: 640 µmol/kg
IC50 [1]: 0.41 µM

Cc1ccccc1C(=CCCN(C)C1CCCc2onc(O)c21)c1ccccc1C (racemic) [Compound 8o, (R,S)-4-[N-[1,1-Di-(2-tolyl)but-1-en-4-yl]methylamino]-3-hydroxy-4,5,6,7-tetrahydro-1,2-benzisoxazole]
ED50 [2]: 50 µmol/kg

OCCNC1CCCc2onc(O)c21 (racemic) [Compound 9a, (R,S)-4-(2-Hydroxyethylamino)-3-hydroxy-4,5,6,7-tetrahydro-1,2-benzisoxazole, hydrobromide]
ED50 [2]: > 140 µmol/kg
IC50 [1]: 180 µM

Oc1noc2c1C(NCCC=C(c1ccccc1)c1ccccc1)CCC2 (racemic) [Compound 20b, (R,S)-3-Hydroxy-4-[N-(4,4-diphenyl-3-butenyl)amino]-4,5,6,7-tetrahydro-1,2-benzioxazole hydrochloride hydrate]
IC50 [1]: 0.14 µM

N[C@@H]1CCCc2onc(O)c21 [Compound 6b, (-)-(R)-4-amino-3-hydroxy-4,5,6,7-tetrahydro-1,2-benzisoxazole, hydrochloride]
IC50 [1]: 120 µM

Oc1noc2c1C(NCCC=C1c3ccccc3CCc3ccccc31)CCC2 (racemic) [Compound 8j, (R,S)-4-[N-[3-(10,11-dihydrodibenzo[a,d]cyclohept-5-ylidene)propane-1-yl]amino]-3-hydroxy-4,5,6,7-tetrahydro-1,2-benzisoxazole, hydrobromide]
IC50 [1]: 1.1 µM

CN(C(=O)Oc1ccccc1)C1CCCc2onc(O)c21 (racemic) [Compound 28a, (R,S)-3-Hydroxy-N-methyl-N-(4-phenyloxycarbonyl)amino-4,5,6,7-tetrahydro-1,2-benzisoxazole]
ED50 [2]: 200 µmol/kg

CNC1CCCc2onc(OCOC(=O)c3ccccc3)c21 (racemic) [Compound 31a, (R,S)-3-Benzoyloxymethyloxy-4-methylamino-4,5,6,7-tetrahydro-1,2-benzisoxazole, hemioxalate]
ED50 [2]: 210 µmol/kg

N[C@H]1CCCc2onc(O)c21 [Compound 6a, (+)-4-amino-3-hydroxy-4,5,6,7-tetrahydro-1,2-benzisoxazole, hydrochloride]
IC50 [1]: > 300 µM
